# According to the supplement of paper PMC10949913:
# Legend:
# Settings in all cases: 48 h
# CU-ACC1 = experiment: area under concentration-response curve (viability) (AUC (a.u.)); higher = less active
# In short: (§1)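 Three adrenocortical carcinoma cell lines in 1,536-well plates received 23 nL of each library compound at 11 concentrations and were read with CellTiter-Glo after 48 h, with 15 minutes at room temperature before measuring luminescence. Vehicle and empty-well controls served for per-plate normalisation. AC50 and area under the curve were extracted from fitted concentration-response curves, discarding all curve classes other than inhibitory or non-responding.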
# CU-ACC2 = experiment: as above
# In short: as §1
# NCI-H295R [1] = experiment: as above
# In short: as §1
# NCI-H295R [2] = experiment: AC50 viability; higher = less potent
# In short: as §1
SMILES,area under concentration-response curve (CU-ACC1),area under concentration-response curve (CU-ACC2),area under concentration-response curve (NCI-H295R [1]),AC50 viability (NCI-H295R [2])
O=C(Nc1ccncc1)C(=O)c1cn(Cc2ccc(Cl)cc2)c2ccccc12,471,419,418,0.372 µM
Cc1cc(C(=O)N2CCN(c3cccc(Cl)c3)CC2)n(-c2ccccc2)n1,,648,515,2.95 µM
CCN1CCN(CC1)CC(=O)NC2=CC=C(C3=C2C4=C(S3)C=CC=C4)C5=C6O\C(=C/C(=O)C6=CC=C5)N7CCOCC7,555,610,494,2.57 µM
COc1ccccc1C(=O)Nc1cc2c(cc1N1CCCCC1)n(C)c(=O)n2C,426,434,422,16.6 µM
COC(=O)c1ccc([C@H]2c3[nH]c4ccccc4c3C[C@H](C(=O)OC)N2C(=O)CCl)cc1,385,360,356,0.263 µM
Cc1cc(-c2nc3cc(F)ccc3s2)ccc1NC(=O)[C@@H](N)CCCCN,555,599,538,23.5 µM
CCNC(=O)Nc1ccc(-c2nc3c(c(N4CCOC[C@@H]4C)n2)CCN(C2COC2)C3)cc1,,561,520,4.68 µM
O=C\1NC(=O)\C(=C1C2=C[NH]C3=C2C=CC=C3)C4=C[NH]C5=C4C=CC=C5,504,562,510,16.6 µM
COc1ccc(N(C)c2nc(C)nc3ccccc23)cc1,491,410,401,0.00934 µM
CC(C)(O)[C@H]1CC[C@H](Nc2ccc3ncc(-c4cccc(C(F)(F)F)c4)n3n2)CC1,434,490,460,11.8 µM
COc1ncc(-c2ccc3nccc(-c4ccnnc4)c3c2)cc1N[S+](=O)([O-])c1ccc(F)cc1F,362,441,362,0.059 µM
O=C(O)c1ccc2c(c1)nc(Nc1cccc(Cl)c1)c1ccncc12,517,570,509,2.63 µM
O=C1S/C(=C\c2ccc(OCc3cccc(B(O)O)c3)cc2)C(=O)N1Cc1ccc(F)cc1,442,488,463,13.2 µM
COC(=O)Nc1nc2cc(C(=O)c3ccccc3)ccc2[nH]1,440,475,412,0.417 µM
COC(=O)Nc1ccc(-c2nc(N3CCOCC3)c3cnn(C4CCN(Cc5cccnc5)CC4)c3n2)cc1,499,546,444,16.6 µM
C/C=C(/C)C(=O)O[C@H]1C(C)=C2[C@H]([C@@H]1OC(=O)CCCCCCC)[C@@](C)(OC(C)=O)C[C@H](OC(=O)CCC)[C@@]1(O)[C@H]2OC(=O)[C@@]1(C)O,465,344,498,10.5 µM
CC(C)[C@](O)(c1ccc2cc(OC(F)F)c(OC(F)F)cc2c1)c1c[nH]nn1,492,,532,23.5 µM
COc1ccc(OC)c(-c2nnc3ccc(-c4ccc(OC)c(O[C@@H]5CCOC5)c4)nn23)c1,482,624,541,5.9 µM
O=C(Nc1ncc(-c2cc(C(F)F)nn2-c2c(Cl)cccc2Cl)s1)C1CC1,501,465,467,0.661 µM
C[C@]12CC[C@@H]3c4ccc(O)cc4CC[C@H]3[C@@H]1CC[C@@H]2O,437,478,471,11.8 µM
C[C@@]1(C(=O)Nc2ccc(F)nc2)CCCN1c1nc(Nc2cc(C3CC3)[nH]n2)c2cccn2n1,505,480,375,0.148 µM
CC[C@]12\C=C/CN3CC[C@]4([C@@H](N(C)C5=CC(=C(C=C45)[C@]6(C[C@H]7C[C@H](CN(C7)CC8=C6[NH]C9=C8C=CC=C9)C(C)(F)F)C(=O)OC)OC)[C@](O)([C@@H]1OC(C)=O)C(=O)OC)[C@H]23,538,,527,0.698 µM
CC(C)(O)CNc1nc(Nc2ccnc(C(F)(F)F)c2)nc(-c2cccc(C(F)(F)F)n2)n1,402,,417,16.6 µM
CSc1ccc(C(=O)/C=C/c2cc(C)c(OC(C)(C)C(=O)O)c(C)c2)cc1,540,,571,48.1 µM
C[C@@H]1CCNC(=O)c2cc3ccc(C(=O)Nc4nc5ccccc5n4CCCN(C)C)cc3n21,513,,553,18.6 µM
CC[C@H](C)[C@@H]([C@@H](CC(=O)N1CCC[C@H]1[C@H](OC)[C@@H](C)C(=O)N[C@@H](Cc1ccccc1)c1nccs1)OC)N(C)C(=O)[C@@H](NC(=O)[C@H](C(C)C)N(C)C)C(C)C,,363,344,33.2 µM
Cc1ccc(-c2nn(C(C)(C)CNC(=O)c3ccncc3)c3ncnc(N)c23)cc1,515,,512,16.6 µM
CC1(C)C(=O)N(c2ccc(C#N)c(C(F)(F)F)c2)C(=S)N1Cc1ccc(-c2c[nH]nn2)cc1,472,,483,20.9 µM
COc1ccc(C(=O)c2c(C)n(CCN3CCOCC3)c3cc(I)ccc23)cc1,317,,392,8.33 µM
